Test results reported in patent US6156700A, “3-(1,2-Benzisothiazol- and isoxazol-5-yl)-2,4(1H,3H)-pyrimidinedione or thione and 3-(1,2-benzisothiazol- and isoxazol-5-yl)-4(3H)-pyrimidinone or thione herbicidal agents” (American Cyanmid Company, priority 1998, dated 2000).

Tests used:
ORYSAT [1] = test: Preemergence herbicidal evaluation; assay type: in vivo, Oryza sativa; design: scale not given here
Method: (§1) The preemergence and postemergence herbicidal properties of certain compounds of the present invention are compared with certain compounds disclosed in U.S. Pat. Nos. 5,484,763 and 5,523,278. The evaluations are performed as described in Examples 185 and 186. Data in Tables V and VI are reported by the compound number given in Example 185 for the compounds of this invention or by comparative compound letter for the compounds disclosed in U.S. Pat. Nos. 5,484,763 and 5,523,278.

CASOB = test: Postemergence herbicidal evaluation; assay type: in vivo
ZEAMX = test: Postemergence herbicidal evaluation; assay type: in vivo
GALAP = test: Postemergence herbicidal evaluation; assay type: in vivo
ABUTH = test: Postemergence herbicidal evaluation; assay type: in vivo
GLXMAW = test: Postemergence herbicidal evaluation; assay type: in vivo
ECHCG = test: Postemergence herbicidal evaluation; assay type: in vivo
ORYSAT [2] = test: Postemergence herbicidal evaluation; assay type: in vivo, Oryza sativa
AMBEL = test: Preemergence herbicidal evaluation; assay type: in vivo; design: scale not given here
Method: as §1

SETVI = test: Preemergence herbicidal evaluation; assay type: in vivo; design: scale not given here
Method: as §1

CHEAL = test: Preemergence herbicidal evaluation; assay type: in vivo; design: scale not given here
Method: as §1

In the case of `Cc1nsc2ccc(N3C(=O)C4=C(CCCC4)C3=O)cc12` [B], the herbicidal effect rating (ORYSAT [1]; 0.0313-0.0320 kg/ha) is reported as 0.0, the herbicidal effect rating (ORYSAT [1]; 0.0620-0.0630 kg/ha) is reported as 0.0 and the herbicidal effect rating (ORYSAT [1]; 0.1250 kg/ha) is reported as 2.0. It also gave a herbicidal effect rating (ORYSAT [1]; 0.2500 kg/ha) of 2.0, a herbicidal effect rating (ORYSAT [1]; 0.5000 kg/ha) of 4.0 and a herbicidal effect rating (CASOB; 0.0157-0.0160 kg/ha) of 6.0. For the same compound, the herbicidal effect rating (CASOB; 0.0313-0.0320 kg/ha) was 7.0, the herbicidal effect rating (CASOB; 0.0625-0.0640 kg/ha) was 8.0 and the herbicidal effect rating (CASOB; 0.1250 kg/ha) was 8.0. The herbicidal effect rating (CASOB; 0.2500 kg/ha) was 9.0, the herbicidal effect rating (CASOB; 0.5000 kg/ha) was 9.0 and the herbicidal effect rating (ZEAMX; 0.0157-0.0160 kg/ha) was 5.0. For the same compound, the herbicidal effect rating (ZEAMX; 0.0313-0.0320 kg/ha) was 5.5, the herbicidal effect rating (ZEAMX; 0.0625-0.0640 kg/ha) was 5.0 and the herbicidal effect rating (ZEAMX; 0.1250 kg/ha) was 5.5. The herbicidal effect rating (ZEAMX; 0.2500 kg/ha) was 6.0, the herbicidal effect rating (ZEAMX; 0.5000 kg/ha) was 5.5 and the herbicidal effect rating (GALAP; 0.0157-0.0160 kg/ha) was 5.0. The herbicidal effect rating (GALAP; 0.0313-0.0320 kg/ha) was 7.0, the herbicidal effect rating (GALAP; 0.0625-0.0640 kg/ha) was 7.0 and the herbicidal effect rating (GALAP; 0.1250 kg/ha) was 7.0. For the same compound, the herbicidal effect rating (GALAP; 0.2500 kg/ha) was 8.0, the herbicidal effect rating (GALAP; 0.5000 kg/ha) was 8.0 and the herbicidal effect rating (ABUTH; 0.0157-0.0160 kg/ha) was 8.0. The herbicidal effect rating (ABUTH; 0.0313-0.0320 kg/ha) was 8.0, the herbicidal effect rating (ABUTH; 0.0625-0.0640 kg/ha) was 9.0 and the herbicidal effect rating (ABUTH; 0.1250 kg/ha) was 9.0. The herbicidal effect rating (ABUTH; 0.2500 kg/ha) was 9.0, the herbicidal effect rating (ABUTH; 0.5000 kg/ha) was 9.0 and the herbicidal effect rating (GLXMAW; 0.0157-0.0160 kg/ha) was 5.5. It also gave a herbicidal effect rating (GLXMAW; 0.0313-0.0320 kg/ha) of 5.5, a herbicidal effect rating (GLXMAW; 0.0625-0.0640 kg/ha) of 5.5 and a herbicidal effect rating (GLXMAW; 0.1250 kg/ha) of 6.0. It also gave a herbicidal effect rating (GLXMAW; 0.2500 kg/ha) of 7.0, a herbicidal effect rating (GLXMAW; 0.5000 kg/ha) of 7.5 and a herbicidal effect rating (ECHCG; 0.0157-0.0160 kg/ha) of 0.0. The herbicidal effect rating (ECHCG; 0.0313-0.0320 kg/ha) was 2.0, the herbicidal effect rating (ECHCG; 0.0625-0.0640 kg/ha) was 2.0 and the herbicidal effect rating (ECHCG; 0.1250 kg/ha) was 4.0. For the same compound, the herbicidal effect rating (ECHCG; 0.2500 kg/ha) was 5.0, the herbicidal effect rating (ECHCG; 0.5000 kg/ha) was 6.0 and the herbicidal effect rating (ORYSAT [2]; 0.0157-0.0160 kg/ha) was 3.5. The herbicidal effect rating (ORYSAT [2]; 0.0313-0.0320 kg/ha) was 4.0, the herbicidal effect rating (ORYSAT [2]; 0.0625-0.0640 kg/ha) was 4.5 and the herbicidal effect rating (ORYSAT [2]; 0.1250 kg/ha) was 4.5. For the same compound, the herbicidal effect rating (ORYSAT [2]; 0.2500 kg/ha) was 5.5, the herbicidal effect rating (ORYSAT [2]; 0.5000 kg/ha) was 6.0 and the herbicidal effect rating (AMBEL; 0.0313-0.0320 kg/ha) was 0.0. For the same compound, the herbicidal effect rating (AMBEL; 0.0620-0.0630 kg/ha) was 0.0, the herbicidal effect rating (AMBEL; 0.1250 kg/ha) was 2.0 and the herbicidal effect rating (AMBEL; 0.2500 kg/ha) was 3.0. For the same compound, the herbicidal effect rating (AMBEL; 0.5000 kg/ha) was 8.0, the herbicidal effect rating (SETVI; 0.0313-0.0320 kg/ha) was 0.0 and the herbicidal effect rating (SETVI; 0.0620-0.0630 kg/ha) was 0.0. The herbicidal effect rating (SETVI; 0.1250 kg/ha) was 2.0, the herbicidal effect rating (SETVI; 0.2500 kg/ha) was 6.0 and the herbicidal effect rating (SETVI; 0.5000 kg/ha) was 4.0. It also gave a herbicidal effect rating (CHEAL; 0.0313-0.0320 kg/ha) of 9.0, a herbicidal effect rating (CHEAL; 0.0620-0.0630 kg/ha) of 6.0 and a herbicidal effect rating (CHEAL; 0.1250 kg/ha) of 9.0.
